Data as given in US12435379B2 (The University of Chicago, priority 2016, dated 2025).

Columns and labels:
[1] = system: TMD8 cells transfected with BTK T316A; conditions: 100 nM ibr 3 days, 10 μM BrdU 2 hrs
Experimental: (§1) FIGS. 3A-C. […] (A) Growth of TMD8 cells transfected with BTK T316A, C481S, and WT BTK constructs. The transfected cells were cultured with either 100 nM ibr or DMSO. The live cell numbers were counted daily to 7 days. […] (B) Cell proliferation evaluated with the BrdU incorporation assay. Cells transfected with WT BTK and T316A were treated with 100 nM ibr for 3 days and were labeled with 10 μM BrdU for 2 hrs.
(§2) BTK WT or mutant-transfected TMD8 cells were treated with ibr for 72 hrs at indicated doses. Cells were then exposed to 10 μM BrdU for 2 hrs followed by cell cycle analysis according to the manufacturer's instructions using BrdU Flow Kit (BD Pharmingen, San Diego, CA, USA). Flow cytometric analysis was performed using 4-laser BD LSR II using FACSDiva and FlowJo software.
(§3) The functional impact of T316A mutation was assessed at the cellular levels. BTK wild type (WT) and T316A as well as C481S expression vectors were constructed and transfected into an ibr-sensitive lymphoma cell line (TMD8) and cell growth was followed.

[2] = system: TMD8 cells transfected with WT BTK; conditions: 100 nM ibr 3 days, 10 μM BrdU 2 hrs
Experimental: as §1, §2, §3

C=CC(=O)N1CCC[C@@H](n2nc(-c3ccc(Oc4ccccc4)cc3)c3c(N)ncnc32)C1 [Ibrutinib, ibrutinib] was tested, and the “BrdU incorporation (cellular proliferation) under ibr” value [1] was 31.8% and the “BrdU incorporation (cellular proliferation) under ibr” value [2] was 9.71%.
